Read-outs that look alike come from different tables or passages of the source.
Tests used:
Format in all cases: in vivo
[1] = test system: house fly (Musca domeestica); test: Test Example 3: treated filter paper with sucrose bait, house fly female adults, mortality; details: 24 h
Procedure: On the bottom of a polyethylene cup of 5.5 cm in diameter was placed a filter paper of the same size, to which a water dilution (500 ppm) of each of the formulations obtained from present compounds 1, 2, 3, 4, 5, 6, 7, 8, 9, 10, 11, 12, 13, 14, 15, 16, 17, 18, 19, 20, 21, 25, 26, 27, 28, 29, 32, 33, 34, 35, 36, 37, 38, 39, 40, 41, 42, 43, 44, 45, 47, 51, 52, 53, 54, 55, 60, and 61 according to Formulation Example 1 was added dropwise in an amount of 0.7 ml, and the cup was uniformly charged with about 30 mg of sucrose as a bait. Ten female adults of house fly (Musca domeestica) were set free in each cup, which was then kept covered. After 1 day, their survival was examined to determine the mortality.

[2] = test system: German cockroach (Blattella germanica); test: Test Example 2: treated filter paper with sucrose bait, German cockroach male adults, mortality; details: 144 h
[3] = test system: common mosquito (Culex pipiens pallens); test: Test Example 4: treated water, common mosquito final-instar larvae, mortality; details: 192 h
[4] = water dilution (500 ppm) of flowable (Formulation Example 1), 0.7 ml on filter paper, female adults, after 1 day, read-out: mortality
[5] = water dilution (500 ppm) of flowable (Formulation Example 1), 0.7 ml on filter paper, male adults, after 6 days, read-out: mortality
[6] = active ingredient 3.5 ppm in ion-exchanged water (0.7 ml of 500 ppm dilution), final-instar larvae, after 8 days, read-out: mortality

NC(=Nc1c(Cl)cc(C(F)(F)F)cc1Cl)C(F)(F)C(F)F [present compound 20, N-(2,6-Dichloro-4-trifluoromethylphenyl)-2,2,3,3-tetrafluoropropionamidine]
100%: mortality at 500 µg/mL [1] | mortality at 500 µg/mL [2] | mortality at 3.5 ppm [3]

NC(=Nc1c([N+](=O)[O-])cc(C(F)(F)F)cc1[N+](=O)[O-])C(F)(F)C(F)(F)C(F)(F)F [present compound 21, N-(2,6-Dinitro-4-trifluoromethylphenyl)-2,2,3,3,4,4,4-heptafluorobutyramidine]
100%: mortality at 500 µg/mL [1] | mortality at 500 µg/mL [2] | mortality at 3.5 ppm [3]

NC(=Nc1c([N+](=O)[O-])cc(C(F)(F)F)cc1[N+](=O)[O-])C(F)(F)Br [present compound 25, 2-Bromo-2,2-difluoro-N-(2,6-dinitro-4-trifluoromethylphenyl) acetamidine]
100%: mortality at 500 µg/mL [1] | mortality at 500 µg/mL [2] | mortality at 3.5 ppm [3]

NC(=Nc1c([N+](=O)[O-])cc(C(F)(F)F)cc1[N+](=O)[O-])C(F)(F)C(F)F [present compound 26, N-(2,6-Dinitro-4-trifluoromethylphenyl)-2,2,3,3-tetrafluoropropionamidine]
100%: mortality at 500 µg/mL [1] | mortality at 500 µg/mL [2] | mortality at 3.5 ppm [3]

NC(=Nc1c(Br)cc(C(F)(F)F)cc1[N+](=O)[O-])C(F)(F)C(F)(F)F [present compound 27, N-(2-Bromo-6-nitro-4-trifluoromethylphenyl)-2,2,3,3,3-pentafluoropropionamidine]
100%: mortality at 500 µg/mL [1] | mortality at 500 µg/mL [2] | mortality at 3.5 ppm [3]

NC(=Nc1c([N+](=O)[O-])cc(C(F)(F)F)cc1[N+](=O)[O-])C(F)(F)Cl [present compound 28, 2-Chloro-2,2-difluoro-N-(2,6-dinitro-4-trifluoromethylphenyl)acetamidine]
100%: mortality at 500 µg/mL [1] | mortality at 500 µg/mL [2] | mortality at 3.5 ppm [3]

NC(=Nc1c([N+](=O)[O-])cc(C(F)(F)F)cc1[N+](=O)[O-])C(F)(Br)C(F)(F)F (stereo not drawn) [present compound 29, 2-Bromo-N-(2,6-dinitro-4-trifluoromethylphenyl)-2,3,3,3-tetrafluoropropionamidine]
100%: mortality at 500 µg/mL [1] | mortality at 500 µg/mL [2] | mortality at 3.5 ppm [3]

NC(=Nc1c(Cl)cc(C(F)(F)F)cc1[N+](=O)[O-])C(F)(F)C(F)(F)C(F)(F)F [present compound 32, N-(2-Chloro-6-nitro-4-trifluoromethylphenyl)-2,2,3,3,4,4,4-heptafluorobutyramidine]
100%: mortality at 500 µg/mL [1, 4] | mortality at 500 µg/mL [2, 5] | mortality at 3.5 ppm [3, 6]

NC(=Nc1c([N+](=O)[O-])cc(C(F)(F)F)cc1[N+](=O)[O-])C(F)(Cl)Cl [present compound 34, 2,2-Dichloro-N-(2,6-dinitro-4-trifluoromethylphenyl)-2-fluoroacetamidine]
100%: mortality at 500 µg/mL [1] | mortality at 500 µg/mL [2] | mortality at 3.5 ppm [3]

NC(=Nc1c([N+](=O)[O-])cc(C(F)(F)F)cc1[N+](=O)[O-])C(F)(F)C(F)(F)Cl [present compound 35, 3-Chloro-N-(2,6-dinitro-4-trifluoromethylphenyl)-2,2,3,3-tetrafluoropropionamidine]
100%: mortality at 500 µg/mL [1] | mortality at 500 µg/mL [2] | mortality at 3.5 ppm [3]

CC(F)(F)C(N)=Nc1c([N+](=O)[O-])cc(C(F)(F)F)cc1[N+](=O)[O-] [present compound 36, 2,2-Difluoro-N-(2,6-dinitro-4-trifluoromethylphenyl)propionamidine]
100%: mortality at 500 µg/mL [1] | mortality at 500 µg/mL [2] | mortality at 3.5 ppm [3]

NC(=Nc1c([N+](=O)[O-])cc(C(F)(F)F)cc1[N+](=O)[O-])C(F)(F)C(F)(Cl)C(F)(F)Cl (stereo not drawn) [present compound 37, 3,4-Dichloro-N-(2,6-dinitro-4-trifluoromethylphenyl)-2,2,3,4,4-pentafluorobutyramidine]
100%: mortality at 500 µg/mL [1] | mortality at 500 µg/mL [2] | mortality at 3.5 ppm [3]

NC(=Nc1c([N+](=O)[O-])cc(C(F)(F)F)cc1[N+](=O)[O-])C(F)(F)C(F)(F)C(F)(F)C(F)F [present compound 38, N-(2,6-Dinitro-4-trifluoromethylphenyl)-2,2,3,3,4,4,5,5-octafluoropentanamidine]
100%: mortality at 500 µg/mL [1] | mortality at 500 µg/mL [2] | mortality at 3.5 ppm [3]

NC(=Nc1c([N+](=O)[O-])cc(C(F)(F)F)cc1[N+](=O)[O-])C(F)(F)C(F)(F)Br [present compound 39, 3-Bromo-N-(2,6-dinitro-4-trifluoromethylphenyl)-2,2,3,3-tetrafluoropropionamidine]
100%: mortality at 500 µg/mL [1] | mortality at 500 µg/mL [2] | mortality at 3.5 ppm [3]

NC(=Nc1c([N+](=O)[O-])cc(C(F)(F)F)cc1[N+](=O)[O-])C(F)(Cl)C(F)(F)Br (stereo not drawn) [present compound 40, 3-Bromo-2-chloro-N-(2,6-dinitro-4-trifluoromethylphenyl)-2,3,3-trifluoropropionamidine]
100%: mortality at 500 µg/mL [1] | mortality at 500 µg/mL [2] | mortality at 3.5 ppm [3]

COC(F)(C(N)=Nc1c([N+](=O)[O-])cc(C(F)(F)F)cc1[N+](=O)[O-])C(F)(F)F (stereo not drawn) [present compound 41, N-(2,6-Dinitro-4-trifluoromethylphenyl)-2-methoxy-2,3,3,3-tetrafluoropropionamidine]
100%: mortality at 500 µg/mL [1] | mortality at 500 µg/mL [2] | mortality at 3.5 ppm [3]

NC(=Nc1c([N+](=O)[O-])cc(C(F)(F)C(F)(F)F)cc1[N+](=O)[O-])C(F)(F)C(F)(F)C(F)(F)F [present compound 42, N-(2,6-Dinitro-4-pentafluoroethylphenyl)-2,2,3,3,4,4,4-heptafluorobutyramidine]
100%: mortality at 500 µg/mL [1] | mortality at 500 µg/mL [2] | mortality at 3.5 ppm [3]

NC(=Nc1c([N+](=O)[O-])cc(C(F)(F)C(F)(F)F)cc1[N+](=O)[O-])C(F)(F)C(F)(F)F [present compound 43, N-(2,6-Dinitro-4-pentafluoroethylphenyl)-2,2,3,3,3-pentafluoropropionamidine]
100%: mortality at 500 µg/mL [1] | mortality at 500 µg/mL [2] | mortality at 3.5 ppm [3]

NC(=Nc1c([N+](=O)[O-])cc(C(F)(F)F)cc1[N+](=O)[O-])C(F)(F)C(F)C(F)(F)F (stereo not drawn) [present compound 44, N-(2,6-Dinitro-4-trifluoromethylphenyl)-2,2,3,4,4,4-hexafluorobutyramidine]
100%: mortality at 500 µg/mL [1] | mortality at 500 µg/mL [2] | mortality at 3.5 ppm [3]

NC(=Nc1c([N+](=O)[O-])cc(OC(F)(F)F)cc1[N+](=O)[O-])C(F)(F)C(F)(F)C(F)(F)F [present compound 45, N-(2,6-Dinitro-4-trifluoromethoxyphenyl)-2,2,3,3,4,4,4-heptafluorobutyramidine]
100%: mortality at 500 µg/mL [1] | mortality at 500 µg/mL [2] | mortality at 3.5 ppm [3]

NC(=Nc1c([N+](=O)[O-])cc(C(F)(F)C(F)(F)C(F)(F)F)cc1[N+](=O)[O-])C(F)(F)C(F)(F)F [present compound 47, N-(2,6-Dinitro-4-heptafluoropropylphenyl)-2,2,3,3,3-pentafluoropropionamidine]
100%: mortality at 500 µg/mL [1] | mortality at 500 µg/mL [2] | mortality at 3.5 ppm [3]

CSC(F)(F)C(N)=Nc1c([N+](=O)[O-])cc(C(F)(F)F)cc1[N+](=O)[O-] [present compound 51, N-(2,6-Dinitro-4-trifluoromethylphenyl)-2,2-difluoro-2-methylthioacetamidine]
100%: mortality at 500 µg/mL [1] | mortality at 500 µg/mL [2] | mortality at 3.5 ppm [3]

CN(C)C(=Nc1c(Cl)cc(C(F)(F)F)cc1Cl)C(F)(F)C(F)(F)F [present compound 53, N′-(2,6-Dichloro-4-trifluoromethylphenyl)-2,2,3,3,3-pentafluoro-N,N-dimethylpropionamidine]
100%: mortality at 500 µg/mL [1] | mortality at 500 µg/mL [2] | mortality at 3.5 ppm [3]

CN(C)C(=Nc1c(Cl)cc(C(F)(F)F)cc1Cl)C(F)(F)Cl [present compound 54, 2-Chloro-N′-(2,6-dichloro-4-trifluoromethylphenyl)-2,2-difluoro-N,N-dimethylacetamidine]
100%: mortality at 500 µg/mL [1] | mortality at 500 µg/mL [2] | mortality at 3.5 ppm [3]

CNC(=Nc1c(Cl)cc(C(F)(F)F)cc1Cl)C(F)(F)F [present compound 55, N′-(2,6-Dichloro-4-trifluoromethylphenyl)-2,2,2-trifluoro-N-methylacetamidine]
100%: mortality at 500 µg/mL [1] | mortality at 500 µg/mL [2] | mortality at 3.5 ppm [3]

COC(=O)NC(=Nc1c(Cl)cc(C(F)(F)F)cc1Cl)C(F)(F)C(F)(F)F [present compound 60, [1-(2,6-dichloro-4-trifluoromethylphenylimino)-2,2,3,3,3-pentafluoropropyl]carbamic acid methyl ester]
100%: mortality at 500 µg/mL [1, 4] | mortality at 500 µg/mL [2, 5] | mortality at 3.5 ppm [3, 6]
